From patent publication US20240279202A1 (NURIX THERAPEUTICS, INC., priority 2021, published 2024)

Target: T1, ITK (Mus musculus, UniProt Q03526)
T1 construct: mice were sacrificed and splenocytes were isolated and used to prepare protein lysates; from tissue; host or cells: mouse splenocytes (spleen) after oral dosing
T1 sequence (Q03526 1-625): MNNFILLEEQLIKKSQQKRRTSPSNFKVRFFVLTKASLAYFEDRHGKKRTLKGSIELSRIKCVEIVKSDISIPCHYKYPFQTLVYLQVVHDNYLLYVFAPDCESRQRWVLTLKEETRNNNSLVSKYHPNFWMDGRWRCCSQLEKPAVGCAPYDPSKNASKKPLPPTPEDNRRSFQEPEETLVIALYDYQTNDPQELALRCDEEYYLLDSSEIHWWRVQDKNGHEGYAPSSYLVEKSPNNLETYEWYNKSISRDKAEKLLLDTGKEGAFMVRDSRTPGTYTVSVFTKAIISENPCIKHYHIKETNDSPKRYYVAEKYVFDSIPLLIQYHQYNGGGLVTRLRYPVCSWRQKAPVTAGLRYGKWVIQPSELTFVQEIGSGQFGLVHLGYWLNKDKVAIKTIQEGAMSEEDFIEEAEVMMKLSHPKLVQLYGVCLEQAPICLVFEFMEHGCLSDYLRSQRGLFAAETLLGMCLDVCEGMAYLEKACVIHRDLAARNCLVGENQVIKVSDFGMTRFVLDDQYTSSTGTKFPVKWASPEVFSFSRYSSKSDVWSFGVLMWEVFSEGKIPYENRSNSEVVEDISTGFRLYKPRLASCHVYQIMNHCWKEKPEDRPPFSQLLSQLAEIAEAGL
Experiment: Mouse PD assay for ITK degradation (Western blot, splenocytes after oral administration)
Type: in vivo
Conditions: for ITK (%) 90 mpk PO, 6 h: percent ITK remaining in mouse splenocytes relative to vehicle
Outline: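 Mice dosed orally, some compounds at 90 mg/kg; splenocytes harvested after 6 hours (some 24 hours). ITK measured by Western blot of equal-protein lysates, normalized to actin. Values are % ITK remaining relative to vehicle-control mean.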

## Cn1c(=O)n([C@H]2CCC(=O)NC2=O)c2cccc(N3CCC(CN4CCN(C(=O)c5ccc6cc(-c7n[nH]c8c7CCC(C)(C)C8)[nH]c6c5)CC4)CC3)c21 [Compound 46, (S)-3-(4-(4-((4-(2-(6,6-dimethyl-4,5,6,7-tetrahydro-1H-indazol-3-yl)-1H-indole-6-carbonyl)piperazin-1-yl)methyl)piperidin-1-yl)-3-methyl-2-oxo-2,3-dihydro-1H-benzo[d]imidazol-1-yl)piperidine-2,6-dione]
  ITK (%) 90 mpk PO, 6 h: 102%

## CN(C(=O)CC[C@H]1CCN(c2ccc3c(c2)C(=O)N(C2CCC(=O)NC2=O)C3=O)C1)c1ccc2cc(-c3n[nH]c4c3C[C@@H]3C(F)(F)[C@]3(C)C4)[nH]c2c1 (stereo in doubt) [Compound 68]
90 mg/kg
  ITK (%) 90 mpk PO, 6 h: 240%

## C[C@@]12Cc3[nH]nc(C(=O)Nc4cnn(CC5CN(C(=O)C6CN(C7CCN(c8ccc9c(c8)C(=O)N(C8CCC(=O)NC8=O)C9=O)CC7)C6)C5)c4)c3C[C@@H]1C2(F)F (stereo partly drawn) [Compound 42, (4aS,5aR)-N-(1-((1-(1-(1-(2-(2,6-dioxopiperidin-3-yl)-1,3-dioxoisoindolin-5-yl)piperidin-4-yl)azetidine-3-carbonyl)azetidin-3-yl)methyl)-1H-pyrazol-4-yl)-5,5-difluoro-5a-methyl-1,4,4a,5,5a,6-hexahydrocyclopropa[f]indazole-3-carboxamide]
  ITK (%) 90 mpk PO, 6 h: 82%

## C[C@@H](C(=O)N(C)c1ccc2cc(-c3n[nH]c4c3CCC(C)(C)C4)[nH]c2c1)N1CCN(C[C@H]2CCN(c3ccc4c(c3)C(=O)N(C3CCC(=O)NC3=O)C4=O)C2)CC1 (stereo partly drawn) [Compound 33, (2S)—N-(2-(6,6-dimethyl-4,5,6,7-tetrahydro-1H-indazol-3-yl)-1H-indol-6-yl)-2-(4-(((3R)-1-(2-(2,6-dioxopiperidin-3-yl)-1,3-dioxoisoindolin-5-yl)pyrrolidin-3-yl)methyl)piperazin-1-yl)-N-methylpropanamide]
  ITK (%) 90 mpk PO, 6 h: 67%

## Cn1c(=O)n(C2CCC(=O)NC2=O)c2cccc(N3CCC(CN4CCC5(CC4)CCN(c4ccc6cc(-c7n[nH]c8c7CCC(C)(C)C8)[nH]c6c4)C5=O)CC3)c21 (stereo not shown) [Compound 13, 3-(4-(4-((2-(2-(6,6-dimethyl-4,5,6,7-tetrahydro-1H-indazol-3-yl)-1H-indol-6-yl)-1-oxo-2,8-diazaspiro[4.5]decan-8-yl)methyl)piperidin-1-yl)-3-methyl-2-oxo-2,3-dihydro-1H-benzo[d]imidazol-1-yl)piperidine-2,6-dione]
mice, oral, splenocytes, Western blot, 6 hours
  ITK degradation in vivo at 6 hours (FIG. 3A, FIG. 4A): degraded ITK in vivo
  ITK (%) 90 mpk PO, 6 h: 15%

## CN(C(=O)C1CN(C2CCN(c3ccc4c(c3)C(=O)N(C3CCC(=O)NC3=O)C4=O)CC2)C1)c1ccc2cc(-c3n[nH]c4c3CCC(C)(C)C4)[nH]c2c1 (stereo not shown) [Compound 35, N-(2-(6,6-dimethyl-4,5,6,7-tetrahydro-1H-indazol-3-yl)-1H-indol-6-yl)-1-(1-(2-(2,6-dioxopiperidin-3-yl)-1,3-dioxoisoindolin-5-yl)piperidin-4-yl)-N-methylazetidine-3-carboxamide]
  ITK (%) 90 mpk PO, 6 h: 108%
